Assay results: PubChem BioAssay AID1963872 (Molecular Pharmacology Branch, DTP, NCI, 2024)

Test system: KRAS patient-derived spheroids with HUVEC/MSC, viability
Experiment: Anticancer human tumor 519858-162-T-J1-PDC patient-derived colon adenocarcinoma cell line growth inhibition [KRAS2]
Conditions: for viability, T/C: stronger effect = lower value
In short: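 Combination screen of spheroid viability in tumor-cell co-cultures with endothelial (HUVEC) and mesenchymal stem cell stroma. Each agent was tested in half-log dilutions, topping at clinical Cmax or at 10 microM without a known Cmax.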
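Further: compound exposure lasted seven days before readout.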
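Wherever viability, T/C is given: 100% = DMSO vehicle control viability.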

In the case of `Cn1ncnc1[C@H]1c2n[nH]c(=O)c3cc(F)cc(c23)N[C@@H]1c1ccc(F)cc1`, the viability, T/C (compound 0.00316 µM) is reported as 85.4% [middle of 5 runs], the viability, T/C (compound 0.01 µM) is reported as 87% [middle of 5 runs] and the IC50 (curve of compound) is reported as greater than 0.1 µM.
Compound `COC(=O)c1ccc2c(C(=Nc3ccc(N(C)C(=O)CN4CCN(C)CC4)cc3)c3ccccc3)c(O)[nH]c2c1` + C=CC(=O)N1CCN(c2nc(OCC3CCCN3C)nc3c2CCN(c2cccc4cccc(C)c24)C3)CC1CC#N has an IC50 (curve of first compound, second compound 0.0316 µM) greater than 10 µM, an IC50 (curve of first compound, second compound 0.1 µM) greater than 10 µM and an IC50 (curve of first compound, second compound 0.316 µM) greater than 10 µM. For the same compound, the IC50 (curve of first compound, second compound 1 µM) was greater than 10 µM, the IC50 (curve of first compound, second compound 3.16 µM) was 4.84 µM and the viability, T/C (second compound 0.0316 µM, first compound 0.0316 µM) was 97.4%. For the same compound, the viability, T/C (second compound 0.0316 µM, first compound 0.1 µM) was 113%, the viability, T/C (second compound 0.0316 µM, first compound 0.316 µM) was 86.8% and the viability, T/C (second compound 0.0316 µM, first compound 1 µM) was 97.8%. For the same compound, the viability, T/C (second compound 0.0316 µM, first compound 3.16 µM) was 76.4%, the viability, T/C (second compound 0.0316 µM, first compound 10 µM) was 106% and the viability, T/C (second compound 0.1 µM, first compound 0.0316 µM) was 89%. It also gave a viability, T/C (second compound 0.1 µM, first compound 0.1 µM) of 89.5%, a viability, T/C (second compound 0.1 µM, first compound 0.316 µM) of 65.8% and a viability, T/C (second compound 0.1 µM, first compound 1 µM) of 68.4%. For the same compound, the viability, T/C (second compound 0.1 µM, first compound 3.16 µM) was 120%, the viability, T/C (second compound 0.1 µM, first compound 10 µM) was 68.7% and the viability, T/C (second compound 0.316 µM, first compound 0.0316 µM) was 90.4%. The viability, T/C (second compound 0.316 µM, first compound 0.1 µM) was 73.5%, the viability, T/C (second compound 0.316 µM, first compound 0.316 µM) was 59.7% and the viability, T/C (second compound 0.316 µM, first compound 1 µM) was 66.7%. The viability, T/C (second compound 0.316 µM, first compound 3.16 µM) was 68.9%, the viability, T/C (second compound 0.316 µM, first compound 10 µM) was 76.9% and the viability, T/C (second compound 1 µM, first compound 0.0316 µM) was 61.9%. It also gave a viability, T/C (second compound 1 µM, first compound 0.1 µM) of 74.7%, a viability, T/C (second compound 1 µM, first compound 0.316 µM) of 67.5% and a viability, T/C (second compound 1 µM, first compound 1 µM) of 57.1%. It also gave a viability, T/C (second compound 1 µM, first compound 3.16 µM) of 81.7%, a viability, T/C (second compound 1 µM, first compound 10 µM) of 147% and a viability, T/C (second compound 3.16 µM, first compound 0.0316 µM) of 60.5%. It also gave a viability, T/C (second compound 3.16 µM, first compound 0.1 µM) of 75.1%, a viability, T/C (second compound 3.16 µM, first compound 0.316 µM) of 68.6% and a viability, T/C (second compound 3.16 µM, first compound 1 µM) of 109%. The viability, T/C (second compound 3.16 µM, first compound 3.16 µM) was 82.2% and the viability, T/C (second compound 3.16 µM, first compound 10 µM) was 0.39%.
